{"source": "patent US4616086A", "about": "“Piperazine-substituted aryl and aralkyl carboxylic acids useful for treating infirmaties caused by excess lipids or thrombocyte” (Boehringer Mannheim GmbH, priority 1981, dated 1986)", "key": {"[1]": {"test_system": "cholesterol and triglyceride levels in the serum", "experiment": "Lowering of Lipid Levels (cholesterol and triglyceride levels in the serum of male rats of normal metabolism, 7 days)", "type": "in vivo", "conditions": "100 mg/kg/d for 7 days in methyl cellulose suspension, serum 3 hours after last dose, in comparison to control; for inhibition in vivo at 100 mg/kg/day: Rattus norvegicus, po", "description": "In each case, 10 male rats of normal metabolism were administered the test substance for 7 days in a dosage of 100 mg/kg/d in methyl cellulose suspension. At the end of the experiment, 3 hours after the last does was administered, the cholesterol and triglyceride levels in the serum were determined. The changes are given in Table I expressed as a percentage in comparison to control for a representative selection of compounds."}, "[2]": {"test_system": "thrombocyte aggregation", "experiment": "Inhibition of Aggregation (Born test, adrenalin-induced thrombocyte aggregation, platelet-rich plasma)", "type": "cell-based, human", "conditions": "for % of inhibition of thrombocyte aggregation: human PRP, adrenalin 5×10^-6 mol/l, 2nd phase, test concentration 14^-4 mol/l [sic]", "description": "Venous blood from subjects of normal metabolism is mixed with sodium citrate (9:1). The erythrocytes are settled by centrifugation at 150 g. The thrombocytes are concentrated in the supernatant. This supernatant is referred to as platelet-rich plasma (PRP). An aliquot of the PRP is placed in the cell of an aggregometer (Universal Aggregometer mfd. by Braun Melsungen) and there stirred by means of a small magnet. The substance to be tested is added in an aqueous solution (pH approx. 7). Changes in the light transmission in the suspension are continuously registered by a recorder. After spontaneous aggregation ends, aggregation is triggered by the addition of adrenalin (end concentration 5×10^-6 mol/l). Larger clumps of thrombocytes form and this causes the transmission of light through the suspension to increase.\nThe adrenalin-induced aggregation takes place in two phases, i.e., the light transmission first increases, then briefly remains steady, and then again increases. Only the second phase of the aggregation can be influenced by aggregation inhibitors.\nWith the same PRP, aggregation is induced with adrenalin after addition of the test substance and the course of the aggregation is registered with the recorder. The angle of the 2nd phase from the horizontal is again determined and the ratio of the two angles gives the percentage of inhibition of the 2nd phase of the thrombocyte aggregation.\nAll substances were tested in a concentration of 14^-4 mol/l in determining their aggregation inhibiting action."}, "[3]": {"conditions": "read-out: % of reduction of cholesterol"}, "[4]": {"conditions": "read-out: % of reduction of triglycerides"}, "[5]": {"conditions": "Homo sapiens, read-out: inhibition of the 2nd phase of thrombocyte aggregation (standard)"}}, "note": "Like-named read-outs stand apart in the source and are kept apart here."}
{"compound": "O=C(O)c1ccc(N2CCN(CCCc3ccccc3)CC2)cc1", "note": "[13 i]", "values": [{"measurement": "inhibition in vivo at 100 mg/kg/day", "setting": "[1]; [3]", "result": 38, "unit": "%"}, {"measurement": "inhibition in vivo at 100 mg/kg/day", "setting": "[1]; [4]", "result": 15, "unit": "%"}]}
{"compound": "O=C(O)c1ccc(CCN2CCN(Cc3ccc(Cl)cc3)CC2)cc1", "note": "[33 b]", "values": [{"measurement": "inhibition in vivo at 100 mg/kg/day", "setting": "[1]; [3]", "result": 40, "unit": "%"}, {"measurement": "inhibition in vivo at 100 mg/kg/day", "setting": "[1]; [4]", "result": 30, "unit": "%"}, {"measurement": "% of inhibition of thrombocyte aggregation", "setting": "[2]", "result": 19, "unit": "%"}]}
{"compound": "O=C(O)c1ccc(CCN2CCN(CCOc3ccccc3)CC2)cc1", "note": "[33 c]", "values": [{"measurement": "inhibition in vivo at 100 mg/kg/day", "setting": "[1]; [3]", "result": 13, "unit": "%"}, {"measurement": "inhibition in vivo at 100 mg/kg/day", "setting": "[1]; [4]", "result": 11, "unit": "%"}, {"measurement": "% of inhibition of thrombocyte aggregation", "setting": "[2]", "result": 40, "unit": "%"}]}
{"compound": "CC(CN1CCN(CCc2ccc(C(=O)O)cc2)CC1)Oc1ccccc1", "note": "(centres unmarked) [33 d]", "values": [{"measurement": "% of reduction of cholesterol", "setting": "[1]", "result": 43, "unit": "%"}, {"measurement": "% of reduction of triglycerides", "setting": "[1]", "result": 41, "unit": "%"}, {"measurement": "% of inhibition of thrombocyte aggregation", "setting": "[2]", "result": 6, "unit": "%"}]}
{"compound": "COc1ccc(OC(C)CN2CCN(CCc3ccc(C(=O)O)cc3)CC2)cc1", "note": "(centres unmarked) [33 f]", "values": [{"measurement": "% of reduction of cholesterol", "setting": "[1]", "result": 37, "unit": "%"}, {"measurement": "% of reduction of triglycerides", "setting": "[1]", "result": 42, "unit": "%"}]}
{"compound": "O=C(O)c1ccc(CCN2CCN(C(=O)c3ccc(Cl)cc3)CC2)cc1", "note": "[33 i]", "values": [{"measurement": "% of reduction of cholesterol", "setting": "[1]", "result": 41, "unit": "%"}, {"measurement": "% of reduction of triglycerides", "setting": "[1]", "result": 24, "unit": "%"}]}
{"compound": "CC(C)(C)c1cc(CCC(=O)N2CCN(CCc3ccc(C(=O)O)cc3)CC2)cc(C(C)(C)C)c1O", "note": "[33 l]", "values": [{"measurement": "% of reduction of cholesterol", "setting": "[1]", "result": 38, "unit": "%"}, {"measurement": "% of reduction of triglycerides", "setting": "[1]", "result": 22, "unit": "%"}]}
{"compound": "CS(=O)(=O)N1CCN(CCc2ccc(C(=O)O)cc2)CC1", "note": "[33 m]", "values": [{"measurement": "inhibition in vivo at 100 mg/kg/day", "setting": "[1]; [3]", "result": 20, "unit": "%"}, {"measurement": "inhibition in vivo at 100 mg/kg/day", "setting": "[1]; [4]", "result": 30, "unit": "%"}]}
{"compound": "O=C(O)c1ccc(CCN2CCN(S(=O)(=O)c3ccc(Cl)cc3)CC2)cc1", "note": "[33 o]", "values": [{"measurement": "inhibition in vivo at 100 mg/kg/day", "setting": "[1]; [3]", "result": 35, "unit": "%"}, {"measurement": "inhibition in vivo at 100 mg/kg/day", "setting": "[1]; [4]", "result": 13, "unit": "%"}]}
{"compound": "O=C(O)c1ccc(CCN2CCN(c3ccc(Oc4ccccc4)cc3)CC2)cc1", "note": "[33 r]", "values": [{"measurement": "inhibition in vivo at 100 mg/kg/day", "setting": "[1]; [3]", "result": 33, "unit": "%"}, {"measurement": "inhibition in vivo at 100 mg/kg/day", "setting": "[1]; [4]", "result": 15, "unit": "%"}]}
{"compound": "CC(Cc1ccc(Cl)cc1)CN1CCN(CCc2ccc(C(=O)O)cc2)CC1", "note": "(centres unmarked) [33 u]", "values": [{"measurement": "inhibition in vivo at 100 mg/kg/day", "setting": "[1]; [3]", "result": 28, "unit": "%"}, {"measurement": "inhibition in vivo at 100 mg/kg/day", "setting": "[1]; [4]", "result": 32, "unit": "%"}]}
{"compound": "O=C(O)c1ccc(CCN2CCN(CC=Cc3ccc(Cl)cc3)CC2)cc1", "note": "[34 c]", "values": [{"measurement": "inhibition in vivo at 100 mg/kg/day", "setting": "[1]; [3]", "result": 30, "unit": "%"}, {"measurement": "inhibition in vivo at 100 mg/kg/day", "setting": "[1]; [4]", "result": 40, "unit": "%"}, {"measurement": "% of inhibition of thrombocyte aggregation", "setting": "[2]", "result": 7, "unit": "%"}]}
{"compound": "O=C(O)c1ccc(CCN2CCN(Cc3ccccc3Cl)CC2)cc1", "note": "[34 i]", "values": [{"measurement": "% of reduction of cholesterol", "setting": "[1]", "result": 21, "unit": "%"}, {"measurement": "% of reduction of triglycerides", "setting": "[1]", "result": 10, "unit": "%"}, {"measurement": "% of inhibition of thrombocyte aggregation", "setting": "[2]", "result": 100, "unit": "%"}]}
{"compound": "CC(CN1CCN(CCc2ccc(C(=O)O)cc2)CC1)Oc1ccc([N+](=O)[O-])cc1", "note": "(centres unmarked) [34 s]", "values": [{"measurement": "inhibition in vivo at 100 mg/kg/day", "setting": "[1]; [3]", "result": 47, "unit": "%"}, {"measurement": "inhibition in vivo at 100 mg/kg/day", "setting": "[1]; [4]", "result": 21, "unit": "%"}]}
{"compound": "O=C(O)Cc1ccc(CCN2CCN(S(=O)(=O)c3ccc(Cl)cc3)CC2)cc1", "note": "[49 e]", "values": [{"measurement": "inhibition in vivo at 100 mg/kg/day", "setting": "[1]; [3]", "result": 41, "unit": "%"}, {"measurement": "inhibition in vivo at 100 mg/kg/day", "setting": "[1]; [4]", "result": 8, "unit": "%"}]}
{"compound": "CC(C)(C)c1cc(C=CC(=O)N2CCN(CCc3ccc(CC(=O)O)cc3)CC2)cc(C(C)(C)C)c1O", "note": "[50 f]", "values": [{"measurement": "inhibition in vivo at 100 mg/kg/day", "setting": "[1]; [3]", "result": 40, "unit": "%"}, {"measurement": "inhibition in vivo at 100 mg/kg/day", "setting": "[1]; [4]", "result": 16, "unit": "%"}]}
{"compound": "O=C(O)Cc1ccc(CCN2CCN(S(=O)(=O)c3ccccc3)CC2)cc1", "note": "[50 g]", "values": [{"measurement": "inhibition in vivo at 100 mg/kg/day", "setting": "[1]; [3]", "result": 28, "unit": "%"}, {"measurement": "inhibition in vivo at 100 mg/kg/day", "setting": "[1]; [4]", "result": 9, "unit": "%"}]}
{"compound": "CC(C)(C)c1cc(CCN2CCN(c3ccc(CC(=O)O)cc3)CC2)cc(C(C)(C)C)c1O", "note": "[50 j]", "values": [{"measurement": "inhibition in vivo at 100 mg/kg/day", "setting": "[1]; [3]", "result": 40, "unit": "%"}, {"measurement": "inhibition in vivo at 100 mg/kg/day", "setting": "[1]; [4]", "result": 0, "unit": "%"}]}
{"compound": "O=C(O)Cc1ccc(N2CCN(S(=O)(=O)c3ccccc3)CC2)cc1", "note": "[50 o]", "values": [{"measurement": "inhibition in vivo at 100 mg/kg/day", "setting": "[1]; [3]", "result": 26, "unit": "%"}, {"measurement": "inhibition in vivo at 100 mg/kg/day", "setting": "[1]; [4]", "result": 14, "unit": "%"}]}
{"compound": "CCOC(=O)c1ccc(CCCN2CCN(C(=O)c3ccc(Cl)cc3)CC2)cc1", "note": "[55 b]", "values": [{"measurement": "inhibition in vivo at 100 mg/kg/day", "setting": "[1]; [3]", "result": 33, "unit": "%"}, {"measurement": "inhibition in vivo at 100 mg/kg/day", "setting": "[1]; [4]", "result": 3, "unit": "%"}]}
{"compound": "CC(CN1CCN(c2ccc(C=CC(=O)O)cc2)CC1)Oc1ccccc1", "note": "(centres unmarked) [65 d1]", "values": [{"measurement": "inhibition in vivo at 100 mg/kg/day", "setting": "[1]; [3]", "result": 5, "unit": "%"}, {"measurement": "inhibition in vivo at 100 mg/kg/day", "setting": "[1]; [4]", "result": 20, "unit": "%"}]}
{"compound": "CC(=Cc1ccc(CCN2CCN(C(=O)c3ccc(Cl)cc3)CC2)cc1)C(=O)O", "note": "[67 d1]", "values": [{"measurement": "inhibition in vivo at 100 mg/kg/day", "setting": "[1]; [3]", "result": 37, "unit": "%"}, {"measurement": "inhibition in vivo at 100 mg/kg/day", "setting": "[1]; [4]", "result": 9, "unit": "%"}]}
{"compound": "CCOC(=O)c1ccc(N2CCNCC2)cc1", "note": "[Example 1, Ethyl 4-(piperazin-1-yl)-benzoate]", "values": [{"measurement": "hygroscopicity", "setting": "hydrochloride", "result": "hydroscopic"}]}
{"compound": "O=C(O)c1ccc(CCN2CCN(CC=Cc3ccc([N+](=O)[O-])cc3)CC2)cc1", "note": "[Example 34o, 4-{2-[1-(4-nitrocinnamyl)-piperazin-4-yl]-ethyl}-benzoic acid]", "values": [{"measurement": "light sensitivity", "result": "Light sensitive"}]}
{"compound": "CCCCOC(=O)CCc1ccc(N2CCN(C(=O)C=Cc3ccc(Cl)cc3)CC2)cc1", "note": "[Example 55, n-Butyl 3-{4-[1-(4-chlorocinnamoyl)-piperazin-4-yl]-phenyl}-propionate]", "values": [{"measurement": "light sensitivity", "result": "light-sensitive"}]}
{"compound": "CCCCCCCCCCCCCCCCN1CCN(c2ccc(CCC(=O)O)cc2)CC1", "note": "[Example 58, 3-[4-(1-n-Hexadecylpiperazin-4-yl)-phenyl]-propionic acid]", "values": [{"measurement": "inhibition in vivo at 100 mg/kg/day", "setting": "[1]; [3]", "result": 17, "unit": "%"}, {"measurement": "inhibition in vivo at 100 mg/kg/day", "setting": "[1]; [4]", "result": 6, "unit": "%"}]}
{"compound": "CC(=O)Oc1ccccc1C(=O)O", "note": "[acetylsalicylic acid, reference compound]", "values": [{"measurement": "inhibition at 50 µM", "setting": "[2]; [5]", "result": 0, "unit": "%"}, {"measurement": "inhibition at 100 µM", "setting": "[2]; [5]", "result": 100, "unit": "%"}]}
